Measurements taken from patent US20250136606A1, “MODULATORS OF TRPML, THEIR COMPOSITIONS AND METHODS OF USE” (Caraway Therapeutics, Inc., priority 2021, published 2025).
Where two headings read alike, the source gives them in different places.

Assays:
Format in all cases: cell-based
[1] = target: T1, TRPML2 (Homo sapiens, UniProt Q8IZK6); test: Fluorescent TRPML2 assay (performed as for TRPML1, substituting the TRPML2 subtype)
T1 construct: expressed in transfected cells
T1 sequence (Q8IZK6 1-566): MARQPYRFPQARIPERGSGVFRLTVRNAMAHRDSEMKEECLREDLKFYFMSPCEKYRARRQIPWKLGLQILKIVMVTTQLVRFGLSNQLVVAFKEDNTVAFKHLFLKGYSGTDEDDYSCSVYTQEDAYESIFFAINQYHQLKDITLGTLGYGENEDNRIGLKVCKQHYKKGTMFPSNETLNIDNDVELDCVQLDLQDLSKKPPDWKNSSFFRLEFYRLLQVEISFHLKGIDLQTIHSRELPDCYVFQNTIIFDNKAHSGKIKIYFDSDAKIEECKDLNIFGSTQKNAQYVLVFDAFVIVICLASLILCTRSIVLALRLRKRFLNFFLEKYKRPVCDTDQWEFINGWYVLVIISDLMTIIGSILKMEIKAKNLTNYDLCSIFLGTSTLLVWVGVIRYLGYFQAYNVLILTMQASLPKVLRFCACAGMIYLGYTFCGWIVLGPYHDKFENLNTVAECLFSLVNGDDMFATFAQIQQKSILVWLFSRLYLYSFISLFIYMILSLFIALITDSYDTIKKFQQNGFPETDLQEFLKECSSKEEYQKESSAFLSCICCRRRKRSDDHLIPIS
In short: (§1)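 HEK-293 Trex, dox-induced (0.5 ug/mL), mutated for surface expression. Fluo4-AM 1 micromolar load ~60 min, dark; buffer modified Ringer's, 10 mM Ca. Cpds 20 micromolar–6 nanomolar final, half-log, n=3. Read ex 480/em 540; % activity vs controls; EC50 nonlinear fit.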

[2] = target: TRPML1 (Homo sapiens, UniProt Q9GZU1); test: Fluorescent TRPML1 assay (Fluo4-AM calcium fluorescence in doxycycline-induced HEK-293 Trex cells)
In short: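 HEK-293 Trex cells stably carrying human TRPML1 (surface-trafficking mutant) were induced overnight with 0.5 ug/mL doxycycline, loaded with 1 micromolar Fluo4-AM, and suspended in Ringer's with 10 mM calcium. Compounds at 20 micromolar to 6 nanomolar final, half-log steps, triplicate; fluorescence 480/540 nm gave percent activity versus controls and EC50 by non-linear regression.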

[3] = target: T2, TRPML3 (Homo sapiens, UniProt Q8TDD5); test: Fluorescent TRPML3 assay (performed as for TRPML1, substituting the TRPML3 subtype)
T2 construct: expressed in transfected cells
T2 sequence (Q8TDD5 1-553): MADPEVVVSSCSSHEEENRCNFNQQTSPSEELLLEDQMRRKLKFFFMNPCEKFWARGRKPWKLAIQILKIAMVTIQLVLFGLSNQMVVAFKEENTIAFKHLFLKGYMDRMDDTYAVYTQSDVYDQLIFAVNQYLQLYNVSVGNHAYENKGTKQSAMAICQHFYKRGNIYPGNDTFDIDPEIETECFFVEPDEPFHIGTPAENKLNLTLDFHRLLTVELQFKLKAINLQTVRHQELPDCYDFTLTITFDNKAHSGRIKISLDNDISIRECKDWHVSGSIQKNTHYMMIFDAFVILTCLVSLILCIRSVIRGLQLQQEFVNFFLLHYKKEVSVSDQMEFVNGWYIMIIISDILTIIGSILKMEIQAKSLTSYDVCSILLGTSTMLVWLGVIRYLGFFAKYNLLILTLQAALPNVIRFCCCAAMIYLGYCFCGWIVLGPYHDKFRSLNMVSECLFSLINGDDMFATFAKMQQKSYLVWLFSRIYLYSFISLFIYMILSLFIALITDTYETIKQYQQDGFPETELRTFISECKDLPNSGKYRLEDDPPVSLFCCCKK
In short: as §1

TRPML1, sequence (Q9GZU1 whole entry L15A/L16A/L577A/L578A, form open): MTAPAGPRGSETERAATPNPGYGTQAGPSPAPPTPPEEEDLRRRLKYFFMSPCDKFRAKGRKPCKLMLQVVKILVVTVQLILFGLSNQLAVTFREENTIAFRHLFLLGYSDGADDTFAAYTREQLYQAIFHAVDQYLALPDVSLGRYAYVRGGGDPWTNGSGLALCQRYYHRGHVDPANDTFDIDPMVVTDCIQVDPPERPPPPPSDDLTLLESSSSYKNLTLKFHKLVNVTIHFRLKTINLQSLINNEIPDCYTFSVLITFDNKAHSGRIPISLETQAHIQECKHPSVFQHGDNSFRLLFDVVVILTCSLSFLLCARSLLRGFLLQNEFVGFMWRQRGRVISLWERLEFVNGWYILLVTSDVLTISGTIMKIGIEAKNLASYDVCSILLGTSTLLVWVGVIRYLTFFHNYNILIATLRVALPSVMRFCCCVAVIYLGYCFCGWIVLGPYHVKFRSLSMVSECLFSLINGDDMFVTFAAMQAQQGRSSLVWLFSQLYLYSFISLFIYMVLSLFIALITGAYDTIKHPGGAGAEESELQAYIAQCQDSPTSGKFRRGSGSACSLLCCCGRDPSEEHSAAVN

Row | EC50 ([1]; fluorescent calcium assay) [nM] | EC50 ([2]; fluorescent calcium assay) [nM] | EC50 ([3]; fluorescent calcium assay) [nM] | EC50 [1] [nM] | EC50 [2] [nM] | EC50 [3] [nM] | Compound
1 | 500 to 2000 | 500 to 2000 | 100 to 500 | – | – | – | Cc1ccc(Cl)cc1-n1cc(-c2cnccn2)c2c(N3CCN(C(=O)OC(C)(C)C)CC3C)ncnc21 (stereo not drawn) [Compound 163, tert-butyl 4-(7-(5-chloro-2-methylphenyl)-5-(pyrazin-2-yl)-7H-pyrrolo[2,3-d]pyrimidin-4-yl)-3-methylpiperazine-1-carboxylate]
2 | – | – | – | 100 to 500 | < 100 | < 100 | C[C@@H]1CN(c2ncnc3c2c(C(F)(F)F)cn3-c2cncc(C#N)c2)[C@@H](C)CN1C(=O)OC(C)(C)C [Compound 662, tert-butyl (2R,5S)-4-(7-(5-cyanopyridin-3-yl)-5-(trifluoromethyl)-7H-pyrrolo[2,3-d]pyrimidin-4-yl)-2,5-dimethylpiperazine-1-carboxylate]
3 | 100 to 500 | < 100 | < 100 | – | – | – | C[C@@H]1CN(c2ncnc3c2c(-c2ccccn2)cn3-c2cc(C#N)ccn2)CCN1C(=O)OC(C)(C)C [Compound 367, tert-butyl (R)-4-(7-(4-cyanopyridin-2-yl)-5-(pyridin-2-yl)-7H-pyrrolo[2,3-d]pyrimidin-4-yl)-2-methylpiperazine-1-carboxylate]
4 | 500 to 2000 | 100 to 500 | < 100 | – | – | – | C[C@H]1CN(C(=O)OC(C)(C)C)CCN1c1ncnc2c1c(C1CC1)cn2-c1nccc(C#N)n1 [Compound 432, tert-Butyl (S)-4-(7-(4-cyanopyrimidin-2-yl)-5-cyclopropyl-7H-pyrrolo[2,3-d]pyrimidin-4-yl)-3-methylpiperazine-1-carboxylate]
5 | 500 to 2000 | 100 to 500 | 100 to 500 | – | – | – | CCc1cncc(-n2cc(C3CC3)c3c(N4CCN(C(=O)OC(C)(C)C)CC4)ncnc32)c1 [Compound 166, tert-butyl 4-(5-cyclopropyl-7-(5-ethylpyridin-3-yl)-7H-pyrrolo[2,3-d]pyrimidin-4-yl)piperazine-1-carboxylate]
6 | 500 to 2000 | < 100 | 100 to 500 | – | – | – | C[C@H]1CN(C(=O)OC(C)(C)C(F)(F)F)CCN1c1ncnc2c1c(C1CC1)cn2-c1cc(C#N)ccn1 [Compound 318, 1,1,1-trifluoro-2-methylpropan-2-yl (S)-4-(7-(4-cyanopyridin-2-yl)-5-cyclopropyl-7H-pyrrolo[2,3-d]pyrimidin-4-yl)-3-methylpiperazine-1-carboxylate]
7 | 500 to 2000 | 100 to 500 | 100 to 500 | – | – | – | COc1cccc(-n2cc(C3CC3)c3c(N4CCN(C(=O)OC(C)(C)C(F)(F)F)C[C@@H]4C)ncnc32)c1 [Compound 263, 1,1,1-trifluoro-2-methylpropan-2-yl (S)-4-(5-cyclopropyl-7-(3-methoxyphenyl)-7H-pyrrolo[2,3-d]pyrimidin-4-yl)-3-methylpiperazine-1-carboxylate]
8 | – | – | – | 100 to 500 | < 100 | < 100 | C[C@@H]1CN(c2ncnc3c2c(C(F)F)cn3-c2cc(C#N)ccn2)[C@@H](C)CN1C(=O)OC(C)(C)C [Compound 520, tert-butyl (2R,5S)-4-(7-(4-cyanopyridin-2-yl)-5-(difluoromethyl)-7H-pyrrolo[2,3-d]pyrimidin-4-yl)-2,5-dimethylpiperazine-1-carboxylate]
9 | 100 to 500 | < 100 | < 100 | – | – | – | COc1cncc(-n2cc(-c3ccccc3F)c3c(N4C[C@@H](C)N(C(=O)OC(C)(C)C)C[C@@H]4C)ncnc32)c1 [Compound 135, tert-butyl (2R,5S)-4-(5-(2-fluorophenyl)-7-(5-methoxypyridin-3-yl)-7H-pyrrolo[2,3-d]pyrimidin-4-yl)-2,5-dimethylpiperazine-1-carboxylate]
10 | 500 to 2000 | < 100 | 500 to 2000 | – | – | – | C[C@H]1CN(C(=O)OC(C)(C)C)CCN1c1ncnc2c1c(N1CCCC1)cn2-c1ncc(C#N)s1 [Compound 485, tert-butyl (S)-4-(7-(5-cyanothiazol-2-yl)-5-(pyrrolidin-1-yl)-7H-pyrrolo[2,3-d]pyrimidin-4-yl)-3-methylpiperazine-1-carboxylate]
